SMILES strings stand for the structures.

Experiment [1] deals with reactive oxygen species (ROS) in HGEPp cells. As to conditions: H2O2-treated cells, 0.3 mM for 4 h.
Description: 2. measure the effect of recrystallized oltipraz amd formulated oltipraz on hydroxyl, peroxyl and other reactive oxygen species within HGEPp cells, using Cell Biolabs' OxiSelect™ Intracellular ROS Assay Kit. This assay employs the cell-permeable fluorogenic probe 2′,7′-dichlorodihydrofluorescein diacetate (DCFH-DA) which diffuses into cells and is deacetylated by cellular esterases to a nonfluorescent DCFH which is then rapidly oxidized to highly fluorescent 2′,7′-dichlorodihydrofluorescein (DCF) by ROS.
Pooled primary HGEPps were propagated in CnT-Prime epithelial culture medium provided by CellnTec on 100 mm petri dishes coated with 30 mg/ml Type I rat tail collagen (BD Biosciences) diluted in Dulbecco's phosphate-buffered saline (DPBS). […] The cells were harvested when they reached 70-90% confluency as observed by light microscopy. For routine cultivation, the medium was changed every 3 days. […]
Oxidative Stress Measurement ROS Assay (OxiSelect Kit) • 1. […] Once the HGEPp cells were cultured and ready on a microplate, the media was removed from all the wells and discarded. […] Fluorescence was read on a Fluorescence Plate Reader after 1 hour. […] Transferred 150 μL of the mixture to a fresh 24-well plate for fluorescence measurements at 530 nm. […]
Intracellular ROS was measured using a Spectramax M3 microplate reader.
Experiment [2] relates to primary human gingival epithelial cells (HGEPp). As to the kind of experiment: cells. Particulars: Epithelial cell, 4 h, read-out: IC50 of H2O2 in HGEPp cells.
Protocol: Pooled primary HGEPps were propagated in CnT-Prime epithelial culture medium provided by CellnTec on 100 mm petri dishes coated with 30 mg/ml Type I rat tail collagen (BD Biosciences) diluted in Dulbecco's phosphate-buffered saline (DPBS). […] The cells were harvested when they reached 70-90% confluency as observed by light microscopy. For routine cultivation, the medium was changed every 3 days. For both the cell viability and ROS assays, the cells from passages 3-7 were seeded at 5×0 3, 2.5×10 4, 5×0 4 cells/cm 2 density to grow cell monolayers in 24-well flat-bottomed tissue culture plates and acclimated overnight at 37° C. […]
Cell Survival Assay (TACS MTT Kit) • 1. Plate cell concentration was selected to be 6.25×10^5/ml to yield an OD absorbance within the linear portion of the control curve. • 2. Once the HGEPp cells were cultured and ready on the microplate, the media was removed from all the wells and discarded. […] Removed the plate cover and measured the absorbance of the wells, including the blanks at 570 nm. • 8. Determined the average values from triplicate readings after subtracting the average value for the blanks.
HGEPp cells were exposed to different concentrations of H2O2 for 4 h to examine H2O2-induced oxidative stress. The cells were exposed to 0-0.6 mM H2O2 for 4 h and cell viability was evaluated using the TACS MTT Cell Proliferation Assay Kit. […]

As for `OO` [Sample H2O2, hydrogen peroxide], the “ROS levels compared to normal control cells (100%)” value in experiment [1] worked out at 128%. Besides, the IC50 in experiment [2] turned out to be 300 µM.

One may read the IC50 as the concentration that gives 50% inhibition.

The values above are taken from patent publication US11185544B2, “Formulations of 4-methyl-5-(pyrazin-2-yl)-3H-l,2-dithiole-3-thione, taste-modified formulations, and methods of making and using same” (ST IP Holding AG, priority 2016, dated 2021).
